Key:
α7 nicotinic receptor = α7 nicotinic receptor (Homo sapiens, UniProt P36544); details: cited from earlier work
Wistar rats = assay: Adolescent AR-R17779 exposure, adult operant beer self-administration (acquisition, extinction, relapse); type: in vivo, rat
Description: (§1) Statistical Analysis. All statistical analyses followed the procedures/flowchart indicated by Keppel and Zedeck (1986). Briefly, the experiments examining the acquisition of alcohol consumption utilized the dependent measure of average weekly alcohol intake. The overall analyses were mixed factor ANOVAs with between subject factors of drug dose and EtOH exposure history (when applicable) and a within subject factor of Week. The statistical analyses surveying relapse drinking examined the average EtOH intake for the three days prior to deprivation and daily EtOH intake values following re-exposure. Post-hoc comparisons for between subject factors were performed with Tukey's b analyses. The Tukey's b post-hoc comparison is a modified Tukey post-hoc comparison that reduces the prohibitive penalty for unequal sample size. There is a single assumption of ANOVAs that cannot be violated. […] Therefore, within subject variables should not be treated like between subject variables and analyzed with forced ANOVAs and inappropriate post-hoc analyses. Proper within subject post-hoc analyses are t-tests and orthogonal contrasts (Keppel and Zeddeck, 1986). Given the general lack of understanding of orthogonal contrasts, the findings from t-test analyses are being reported. Concerns of Type I error rate inflation is eliminated by the proper reading of Rodgers (1967). Type 1 error rate inflations is Ψi (i=1, . . . , J−1), and not Bonferroni, an improper estimate. Given the effect size of the current data set there is no likelihood of Type 1 error rate inflation for any reported analyses (c.f., Rodgers and Roberts, 2012; Roberts, 2011).
Effects of exposure to the α7 agonist AR-R17779 during early adolescence on adult EtOH consumption (acquisition, maintenance, extinction, craving, and relapse). The current experiment was conducted to generalize the effects of exposure to an α7 NAchR receptor agonist during adolescence on adult alcohol consumption in non-selected (non-genetically predisposed rats). Brief exposure to AR during adolescence in Wistar rats produced similar alterations in adult beer consumption. Male and female Wistar rats were exposed to AR (0, 3, or 10 mg/kg) on PND 29, 30, 33, 35, 36, and 37 (no alcohol exposure during adolescence). On PND 75 rats were allowed to self-administer beer (9% IPA) under operant conditions.

[1] = system: alcohol preferring (P) rats; assay: Exposure to α7 agonist AR-R17779 during early adolescence, adult EtOH consumption (acquisition and relapse drinking); type: in vivo, rat; details: for duration of alcohol deprivation effect (ADE): vs baseline intake
Description: (§2) Subjects. The alcohol-preferring (P) rats used in the current experiments were from the standard P stock maintained by the Animal Breeding Core of the Indiana University Alcohol Research Center (IUARC). Animals used in this study were maintained in facilities fully accredited by the Association for the Assessment and Accreditation of Laboratory Animal Care. All research protocols were approved by the IUSM Institutional Animal Care and Use Committee (IUSM IACUC) and were in accordance with the guidelines of the Institutional Care and Use Committee of the National Institute on Drug Abuse, the NIH, and the Guide for the Care and Use of Laboratory Animals (2011).
Effects of exposure to the α7 agonist AR-R17779 during early adolescence on adult EtOH consumption. Adolescent male (n=14) and female (n=13) alcohol preferring (P) rats were exposed to the α7 nicotinic receptor agonist, AR-R17779 ((2S)-2′H-spiro[4-azabicyclo[2.2.2]octane-2,5′-[1,3]oxazolidin]-2′-one) (AR; Tocris) on PND 29, 30, 33, 35, 36, and 37. The doses of AR-R17779 was 0 (saline controls), 3 or 10 mg/kg (all drugs administered i.p.). […] The doses of AR employed are typical for peripheral administered studies and results in observed alterations in specific behaviors. All rats were group housed between PND 26 and 73 (adulthood). Subjects only received treatment with AR_on the days specified.
as §1

α3β4 = α3β4 (Homo sapiens, UniProt P30926+P32297); details: read-out: binding to α3β4 IC50; cited from earlier work
Sequence of α3β4 (P32297 32-505): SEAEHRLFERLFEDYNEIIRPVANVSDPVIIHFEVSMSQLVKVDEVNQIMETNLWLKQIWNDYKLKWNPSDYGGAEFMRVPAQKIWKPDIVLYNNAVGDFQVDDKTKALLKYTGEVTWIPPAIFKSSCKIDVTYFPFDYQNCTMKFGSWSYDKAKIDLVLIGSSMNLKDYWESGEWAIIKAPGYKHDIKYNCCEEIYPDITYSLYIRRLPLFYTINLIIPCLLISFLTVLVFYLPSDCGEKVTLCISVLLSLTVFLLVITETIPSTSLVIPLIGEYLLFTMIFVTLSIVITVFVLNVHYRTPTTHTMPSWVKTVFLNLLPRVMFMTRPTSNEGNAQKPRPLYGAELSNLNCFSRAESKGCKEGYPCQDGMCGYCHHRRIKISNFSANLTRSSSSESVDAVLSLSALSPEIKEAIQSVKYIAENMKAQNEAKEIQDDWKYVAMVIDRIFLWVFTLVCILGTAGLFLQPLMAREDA
Sequence of α3β4 (P30926 22-498): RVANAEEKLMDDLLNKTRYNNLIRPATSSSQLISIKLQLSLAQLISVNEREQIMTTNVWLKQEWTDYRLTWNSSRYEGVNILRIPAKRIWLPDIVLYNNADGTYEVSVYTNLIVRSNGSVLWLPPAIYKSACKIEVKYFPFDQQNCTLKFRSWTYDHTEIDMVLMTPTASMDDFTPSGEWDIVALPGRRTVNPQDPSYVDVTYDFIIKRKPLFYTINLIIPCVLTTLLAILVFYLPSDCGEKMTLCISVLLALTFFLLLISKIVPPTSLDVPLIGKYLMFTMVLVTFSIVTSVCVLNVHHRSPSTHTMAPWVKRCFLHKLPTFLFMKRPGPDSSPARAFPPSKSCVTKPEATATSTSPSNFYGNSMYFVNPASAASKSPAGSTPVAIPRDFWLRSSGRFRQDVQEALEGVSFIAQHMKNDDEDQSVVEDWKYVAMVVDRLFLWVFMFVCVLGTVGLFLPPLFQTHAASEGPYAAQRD

P rats = assay: Pretreatment with α7 NAM dehydronorketamine prior to adolescent binge-like alcohol exposure (AIE), adult EtOH consumption; type: in vivo, rat; details: for effect on deleterious effects of adolescent alcohol exposure (adult alcohol intake, weeks 1-2): males and females
Description: as §2, §1
Effects of pretreatment with an α7 NAM dehydronorketamine prior to binge-like exposure during adolescence on adult EtOH consumption. There were 5 treatment groups. Adolescent male (n=24) and female (n=26) P rats were used in the experiment. The AIE exposure began on PND 28. Rats were given 4 g/kg alcohol (25% v/v; gavage) every Monday, Tuesday, Thursday and Friday (4 days a week; 3 days with no alcohol exposure) from post-natal day 28-48. Control (CON) groups received an equivalent volume administration of water. In the AIE groups, rats were injected (i.p.) with 0 (saline), 10 or 50 mg/kg of the α7 nicotinic receptor NAM dehydronorketamine (DHNK; Santa Cruz biotechnology) 2 hours prior to AIE exposure. CON groups received (i.p.) injections of saline or 50 mg/kg DHNK 2 hours prior to water gavage exposure. All rats were group housed between post-natal day 48 and 73 (adulthood). Pretreatment and gavage administration occurred during PND 28, 29, 30, 31, 34, 35, 37, 39, 40, 41, 44, 45, 47, and 48. Subjects were not exposed to DHNK any time after PND48.

female P rats = assay: Pretreatment with α7 NAM SB-277011-A prior to adolescent binge alcohol exposure (ABAE), adult EtOH consumption; type: in vivo, rat
Protocol: Effects of exposure to the α7 negative allosteric modulator (NAM) SB-277011-A prior to adolescence binge alcohol exposure on adult EtOH consumption. Currently, there are 3 commercially available α7 NAMs: DHNK, SB-277011-A (SB), and Butaclamol (AY-23,028). SB is also a selective D3 antagonist. Butaclamol is a typical antipsychotic that is also a non-selective dopamine receptor antagonist. Referring now to FIG. 7, the ability of SB to prevent ABAE-induced increases were assessed in adult EtOH consumption. Briefly, female P rats were exposed to the standard ABAE protocol. ABAE and CON rats were injected (i.p.) with 0 (water), 1 or 5 mg/kg SB (Sigma) 2 hours before gavage treatment. […] Statistically, there was a significant ABAE X SB Dose X Day interaction term (F12,244=2.3; p<0.01). Therefore, the data sets indicate that despite having different off-target sites of activation (SB-D3 antagonist), both α7 NAMs prevented the deleterious consequences of ABAE.

[2] = 3 and 10 mg/kg AR during adolescence
[3] = 1 or 5 mg/kg SB i.p. 2 hours before gavage

Sequence of α7 nicotinic receptor (P36544 23-502): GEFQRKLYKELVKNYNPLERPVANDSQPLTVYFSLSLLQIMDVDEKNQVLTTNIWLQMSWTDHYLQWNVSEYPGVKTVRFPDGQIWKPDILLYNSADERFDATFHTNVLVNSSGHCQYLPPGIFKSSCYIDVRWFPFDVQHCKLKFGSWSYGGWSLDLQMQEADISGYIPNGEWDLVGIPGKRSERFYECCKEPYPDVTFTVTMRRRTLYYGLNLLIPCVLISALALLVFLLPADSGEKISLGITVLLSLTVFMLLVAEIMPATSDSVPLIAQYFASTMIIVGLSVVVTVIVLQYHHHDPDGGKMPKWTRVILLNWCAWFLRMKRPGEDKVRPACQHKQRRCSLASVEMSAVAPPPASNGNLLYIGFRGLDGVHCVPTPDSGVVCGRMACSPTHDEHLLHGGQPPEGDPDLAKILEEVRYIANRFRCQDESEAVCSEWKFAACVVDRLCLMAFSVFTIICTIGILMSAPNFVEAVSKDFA

O=C1NC[C@@]2(CN3CCC2CC3)O1 [AR-R17779, (2S)-2′H-spiro[4-azabicyclo[2.2.2]octane-2,5′-[1,3]oxazolidin]-2′-one]
affinity for receptors other than α7 nicotinic receptor (α7 nicotinic receptor): no or minimal affinity for all other examined receptors | beer self-administration during adulthood (FIG. 4, *) (Wistar rats; [2]): 3 and 10 AR>saline | beer self-administration during adulthood (FIG. 4, +) (Wistar rats; [2]): 10>3>saline | acquisition of alcohol self-administration, sessions 7-14 (Wistar rats; AR 3 or 10 mg/kg during adolescence, beer (9% IPA), operant): acquired alcohol self-administration faster than controls | rate of extinction learning (Wistar rats; adolescent exposure, no alcohol available): retarded the rate of extinction learning | relapse drinking (individual ANOVAs) (Wistar rats; alcohol re-exposure, p values<0.001): enhanced relapse drinking | lever responding, extinction session 3 (Wistar rats; highest dose of AR-R17779): responded more on the lever previously associated with delivery of alcohol than all other groups | alcohol consumed during re-exposure sessions (post-hoc) (Wistar rats; vs saline controls): consumed more alcohol than control rats (saline) during the initial 3 re-exposure sessions | lever responding, extinction sessions 1 and 2 (Wistar rats; vs saline treated rats, Tukey's b): responded more on the lever previously associated with the delivery of alcohol | duration of alcohol deprivation effect (ADE) ([1]; female P rats, 3 mg/kg AR during adolescence): 2 days | duration of alcohol deprivation effect (ADE) ([1]; female P rats, 10 mg/kg AR during adolescence): 3 days | adult alcohol intake, 1st week of alcohol access ([1]; female P rats, 10 mg/kg AR i.p. during early adolescence vs saline or 3 mg/kg, Tukey's b): consumed more alcohol than rats administered saline or 3 mg/kg AR during adolescence | relapse EtOH drinking, Day 1 of EtOH re-exposure ([1]; female P rats, 10 mg/kg AR vs 3 mg/kg group): consumed more alcohol than the 3 mg/kg group | relapse EtOH drinking, 2nd re-exposure day ([1]; female P rats, 10 mg/kg AR vs saline): consumed more alcohol than rats administered saline | adult alcohol intake, 2nd week of alcohol access ([1]; female P rats, 3 and 10 mg/kg AR i.p. during early adolescence vs saline, p<0.05): 10 mg/kg>3 mg/kg>saline | relapse EtOH drinking, re-exposure day 3 ([1]; female P rats, 3 and 10 mg/kg AR vs saline): 10 mg/kg>3 mg/kg>Saline | relapse EtOH drinking (FIG. 3, +) ([1]; female and male P rats, 10 mg/kg during adolescence vs saline): consumed more alcohol than saline controls | average alcohol intake in adulthood (FIG. 2, #) ([1]; female and male rats, 3 mg/kg during adolescence): 3 mg/kg>saline | average alcohol intake in adulthood (FIG. 2, *) ([1]; female and male rats, 10 mg/kg during adolescence): 10 mg/kg AR-R17779>3 mg/kg and saline | ADE, EtOH intake vs baseline ([1]; male P rats, 3 mg/kg AR during adolescence, p<0.05): elevated levels of EtOH intake during the 1st re-exposure day compared to baseline intake | ADE, EtOH intake vs baseline ([1]; male P rats, 10 mg/kg AR during adolescence): Evidence of an ADE was detected during re-exposure days 1-3 | adult alcohol intake, 1st and 2nd weeks of alcohol access ([1]; male P rats, 10 mg/kg AR i.p. during early adolescence vs saline or 3 mg/kg, p<0.05): consumed more alcohol than rats administered saline or 3 mg/kg AR | relapse EtOH drinking, group differences during re-exposure days 1-4 ([1]; male P rats, AR 0, 3, 10 mg/kg, p>0.083): no significant group differences

NC1(c2ccccc2Cl)CCC=CC1=O (centres unmarked) [DHNK, 5,6-dehydronorketamine]
IC50 (α3β4): > 200 µM | effect on deleterious effects of adolescent alcohol exposure (adult alcohol intake, weeks 1-2) (P rats; P rats, 10 mg/kg DHNK i.p. 2 hours prior to AIE): blocked the deleterious effects of adolescent alcohol exposure | effect on deleterious effects of adolescent alcohol exposure (adult alcohol intake, weeks 1-2) (P rats; P rats, 50 mg/kg DHNK i.p. 2 hours prior to AIE): blocked the deleterious effects of adolescent alcohol exposure | adult alcohol drinking without adolescent alcohol (CON-50 mg/kg DHNK) (P rats; P rats, 50 mg/kg DHNK i.p. prior to water gavage): did not alter alcohol drinking during adulthood | effect on AIE-enhanced relapse drinking (P rats; P rats, DHNK pretreatment): altered the enhancement in relapse drinking produced by AIE exposure | relapse alcohol drinking vs baseline (P rats; female P rats, AIE-10 mg/kg DHNK, paired t-tests): increase in alcohol consumption (compared to baseline during the 1st re-exposure day) | relapse alcohol drinking vs baseline (P rats; female P rats, ATE-50 mg/kg DHNK, paired t-tests): increase in alcohol consumption during the first three re-exposure days | relapse alcohol drinking vs baseline (P rats; female P rats, CON-50 mg/kg DHNK, paired t-tests): significant increase in alcohol drinking during the 1st re-exposure day | relapse alcohol drinking vs baseline (P rats; male P rats, AIE-10 mg/kg DHNK): increase in drinking during the 1st re-exposure day | relapse alcohol drinking vs baseline (ADE) (P rats; male P rats, AIE-50 mg/kg): did not display an ADE | relapse alcohol drinking vs baseline (ADE) (P rats; male P rats, CON-50 mg/kg): did not display an ADE | effect on AIE-induced increase of adult alcohol consumption (overall) (P rats; male and female P rats, DHNK i.p. 2 hours prior to AIE): blocked the ability of adolescent alcohol exposure to increase alcohol consumption during adulthood

N#Cc1ccc2c(c1)CCN(CC[C@H]1CC[C@H](NC(=O)c3ccnc4ccccc34)CC1)C2 [SB-277011-A, N-{trans-4-[2-(6-cyano-3,4-dihydroisoquinolin-2(1H)-yl)ethyl]cyclohexyl}quinoline-4-carboxamide]
relapse EtOH drinking, ABAE vs corresponding CON group (FIG. 8, +) (female P rats; 1 mg/kg SB prior to ABAE): consumed more alcohol than corresponding CON group | adult EtOH consumption (FIG. 7, +) (female P rats; 1 mg/kg vs 5 mg/kg SB): 1 mg/kg>5 mg/kg SB rats | adult EtOH consumption (FIG. 7, #) (female P rats; 5 mg/kg SB vs water-ABAE and 1 mg/kg SB): water-ABAE and 1 mg/kg SB>5 mg/kg SB rats | adult EtOH consumption (FIG. 7, *) (female P rats; 1 and 5 mg/kg SB vs water-ABAE): water-ABAE rats >1 mg and 5 mg/kg SB rats | effect on ABAE-induced enhancement of EtOH consumption during relapse (ADE) (female P rats; [3]): prevented ABAE-induced enhancement of EtOH consumption during relapse (ADE) conditions | effect on ABAE-induced increase in EtOH consumption during acquisition (female P rats; [3]): prevented the ABAE-induced increase in EtOH consumption during acquisition
